Experiment [1] concerns the target T1, SOS1/KRAS G12C protein binding (Homo sapiens, UniProt Q07889).
T1 construct: His-SOS1 (aa 564-1049) protein; purchased Pharmaron Beijing Co., Ltd. 20200717 (His-SOS1); 20200707 (KRAS G12C)
T1 sequence (Q07889 564-1049): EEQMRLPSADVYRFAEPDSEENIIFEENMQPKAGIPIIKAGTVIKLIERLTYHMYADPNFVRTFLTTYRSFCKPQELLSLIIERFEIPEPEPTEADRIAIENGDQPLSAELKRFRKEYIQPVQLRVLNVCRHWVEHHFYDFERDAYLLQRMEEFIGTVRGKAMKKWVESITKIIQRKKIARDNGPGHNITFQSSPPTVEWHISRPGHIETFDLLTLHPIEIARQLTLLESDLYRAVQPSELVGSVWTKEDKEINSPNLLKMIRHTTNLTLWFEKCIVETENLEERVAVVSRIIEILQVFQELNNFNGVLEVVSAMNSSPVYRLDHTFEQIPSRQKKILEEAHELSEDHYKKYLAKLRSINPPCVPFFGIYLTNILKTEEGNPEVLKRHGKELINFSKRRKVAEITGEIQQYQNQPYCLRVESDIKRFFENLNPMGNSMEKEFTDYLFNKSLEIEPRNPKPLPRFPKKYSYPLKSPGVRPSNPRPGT
Description: Inhibition of SOS1/KRAS G12C protein binding (665 nm/615 nm ratio). To be noted: 15 nM KRAS G12C (aa 1-169), 2.5 nM His-SOS1 (aa 564-1049); nonlinear regression. The procedure: Efficacy Example 2: Evaluation of Inhibition of SOS1/KRAS G12C Protein Binding
A test compound was dissolved in 100% DMSO to give a solution at a concentration of 10 mM. 10 μL of the solution was taken and 3-fold diluted with 100% DMSO to prepare test compound solutions with concentrations of 10000 nM to […], for a total of 11 concentrations. The compound solutions at different concentrations were then transferred to a 384-well plate at 0.1 μL/well using a sonic droplet device Echo (Labcyte), and 2 replicate wells were set for each concentration.
A 15 nM KRAS G12C (aa 1-169) protein (Pharmaron Beijing Co., Ltd., 20200707) was transferred to the 384-well reaction plate at 5 μL/well using the sonic droplet device Echo (Labcyte), and then the reaction plate was centrifuged in a centrifuge (Eppendorf, 5810R) at 1000 rpm/min for 1 min.
A 2.5 nM His-SOS1 (aa 564-1049) protein (Pharmaron Beijing Co., Ltd., 20200717) was transferred to the 384-well reaction plate at 5 μL/well using the sonic droplet device Echo (Labcyte), and then the reaction plate was centrifuged in a centrifuge (Eppendorf, 5810R) at 1000 rpm/min for 1 min and incubated at 25° C. for 15 min.
A mixed solution of Antibody 1 (MAb Anti-6his-Tb cryptate Gold, Cisbio, 61HI2TLA) and Antibody 2 (MAb Anti-GST-XL665, Cisbio, 61GSTXLA) was transferred to the 384-well reaction plate at 10 μL/well using the sonic droplet device Echo (Labcyte), and then the reaction plate was centrifuged in a centrifuge (Eppendorf, 5810R) at 1000 rpm/min for 1 min and incubated at 25° C. for 120 min.
The 665 nm/615 nm optical density ratio was read using an Envision multifunctional microplate reader (Perkin Elmer, Envision 2104).
Analysis of Original Data:
The IC50 values of the compounds were fitted by a nonlinear regression equation of Graphpad Prism 8. The results are shown in Table 2: • Negative control: DMSO
The IC50 (half maximal inhibitory concentration) values of the compounds were calculated using the following non-linear fitting equation:
[formula] • X: Log of cpd concentration • Y: 665 nm/615 nm ratio

The test system of experiment [2] is ERK phosphorylation in DLD-1 cells. The experiment in a line: In-cell Western blot assay for ERK phosphorylation in DLD-1 cells. It counts as cell-based. Particulars: Homo sapiens, p-ERK signal corrected using DMSO and BI-3406, four-parameter fit. The procedure: Efficacy Example 1: In-cell Western Blot Assay for ERK Phosphorylation in DLD-1 Cells
DLD-1 cells (ATCC, CCL-221) were thawed and cultured in a culture medium containing RPMI1640 (Gibco, A10491-01), 10% fetal bovine serum (FBS) (Transgene, FS201-02) and 1% antibiotic P/S (Gibco, 15140-122) for 3 days until the cell viability was good. The cells were inoculated into a 384-well plate and incubated at 37° C. with 5% CO2 overnight. A test compound, a positive control compound, and a negative control were added. The compound was at concentrations of 10000 nM to 1.52 nM (3-fold dilution) and […], for a total of 10 concentrations. The mixture was well mixed and incubated at 37° C. with 5% CO2. The cells were washed twice with PBS (Solarbio, P1010), and then a blocking buffer was added. After 1 h of blocking at room temperature, a primary antibody mixture (phospho-p44/42 MAPK (T202/Y204) Rabbit mAb (CST, […]), GAPDH (D4C6R) Mouse mAb) (CST, 97166S) was added, followed by overnight incubation at 4° C. The cells were washed 3 times with PBST (PBS containing 0.05% Tween-20 (Solarbio, T8220)), and a secondary antibody mixture (goat anti rabbit 800CW (LI-COR, 926-32211), goat anti mouse 680RD (LI-COR, 926-68070)) was added, followed by incubation at room temperature in the dark. The 384-well plate was reversed and centrifuged at 1000 rpm for 1 min, and read on an Odyssey CLx fluorescence imaging system (LI-COR) to obtain fluorescence signal values, which were corrected using DMSO and BI-3406.
[formula] • H=Ave (DMSO) • L=Ave (BI-3406) • SD (H)=STDEV (DMSO) • SD (L)=STDEV (BI-3406)
The IC50 values of the compounds were calculated using a four-parameter fitting algorithm, specifically as follows:
[formula] • X: Log of cpd concentration • Y: Ave (relative pERK) • Top and Bottom: Plateaus in same units as Y • log IC50: same log units as X • HillSlope: Slope factor or Hill slope.

As for `COc1c(=O)n(C2(C(F)F)CC2)cc2c(N[C@H](C)c3cccc(C(F)F)c3F)nc(C)nc12` [SZ-022244], the IC50 in experiment [1] was found to be 17.8 nM; in experiment [2], 265 nM.

For the molecule `Cc1nc(N[C@H](C)c2cccc(C(F)F)c2F)c2cn(C3(C(F)F)CC3)c(=O)c(N(C)C)c2n1` [SZ-022251], the IC50 in experiment [2] was 146 nM.

For `[2H]C([2H])([2H])Oc1c(=O)n(C2(C(F)F)CC2)cc2c(N[C@H](C)c3cccc(C(F)F)c3F)nc(C)nc12` [SZ-022295], the IC50 in experiment [1] is 8.15 nM; in experiment [2], 256 nM.

Regarding `CCOc1c(=O)n(C2(C(F)F)CC2)cc2c(N[C@H](C)c3cccc(C(F)F)c3F)nc(C)nc12` [SZ-022296], the results for the IC50 in experiment [1] and in experiment [2] were 9.43 nM and 143 nM, respectively.

As to `Cc1nc(N[C@H](C)c2cccc(C(F)F)c2F)c2cn(C3(C(F)F)CC3)c(=O)c(OC3CC3)c2n1` [SZ-022299], the IC50 in experiment [1] is 22.4 nM; in experiment [2], 751 nM.

With `COc1c(=O)n(C2(C)CC2)cc2c(N[C@H](C)c3cccc(C(F)F)c3F)nc(C)nc12` [SZ-022300], the IC50 turned out to be 12.1 nM in experiment [1] and 412 nM in experiment [2].

`COc1c(=O)n(C2(CF)CC2)cc2c(N[C@H](C)c3cccc(C(F)F)c3F)nc(C)nc12` [SZ-022301]: the IC50 in experiment [1] came to 6.5 nM; in experiment [2] it was 262 nM.

Regarding `COc1c(=O)n(C2(C(F)F)CC2)cc2c(N[C@H](C)c3cccc(C(F)F)c3C)nc(C)nc12` [SZ-022302], the values for the IC50 in experiment [1] and in experiment [2] were 3.79 nM and 104 nM, respectively.

For `COc1c(=O)n(C2(C(F)F)CC2)cc2c(N[C@H](C)c3cccc(C(C)(F)F)c3F)nc(C)nc12` [SZ-022303], the half-inhibitory concentration (IC50) in experiment [1] was found to be 9.77 nM; in experiment [2], 128 nM.

Take `COc1c(=O)n(C2(C(F)F)CC2)cc2c(N[C@H](C)c3cccc(C(F)(F)F)c3C)nc(C)nc12` [SZ-022304]: the results for the IC50 in experiment [1] and in experiment [2] were 6.98 nM and 79 nM, respectively.

As for `CSc1c(=O)n(C2(C(F)F)CC2)cc2c(N[C@H](C)c3cccc(C(F)F)c3F)nc(C)nc12` [SZ-022306], the IC50 was found to be 12.5 nM in experiment [1] and 213 nM in experiment [2].

Turning to `Cc1nc(N[C@H](C)c2cccc(C(F)F)c2F)c2cn(C3(C(F)F)CC3)c(=O)c(S(C)(=O)=O)c2n1` [SZ-022307], the figures for the IC50 in experiment [1] and in experiment [2] were 25.9 nM and 253 nM, respectively.

Take `Cc1nc(N[C@H](C)c2cccc(C(F)F)c2F)c2cn(C3(C(F)F)CC3)c(=O)c(OCC(F)(F)F)c2n1` [SZ-022312]: the IC50 in experiment [1] is 17.9 nM; in experiment [2], 601 nM.

`Cc1nc(N[C@H](C)c2cccc(C(F)F)c2F)c2cn(C3(C(F)F)CC3)c(=O)c(OC(C)C)c2n1` [SZ-022313]: the IC50 in experiment [1] was determined as 44 nM; in experiment [2], 1270 nM.

As to `Cc1nc(N[C@H](C)c2cccc(C(F)F)c2F)c2cn(C3(C(F)F)CC3)c(=O)c(OCC3CC3)c2n1` [SZ-022314], the results for the IC50 in experiment [1] and in experiment [2] were 17.3 nM and 563 nM, respectively.

Take `COc1c(=O)n(C2(C(F)F)CC2)cc2c(N[C@H](C)c3cccc(C(F)(F)C(C)(C)O)c3F)nc(C)nc12` [SZ-022317]: the values for the IC50 in experiment [1] and in experiment [2] were 4.54 nM and 371 nM, respectively.

As to `COc1c(=O)n(C2(C(F)(F)F)CC2)cc2c(N[C@H](C)c3cccc(C(F)F)c3F)nc(C)nc12` [SZ-022325], the IC50 in experiment [1] turned out to be 15.9 nM; in experiment [2], 216 nM.

`COc1c(=O)n(C2CCOCC2)cc2c(N[C@H](C)c3cccc(C(F)F)c3F)nc(C)nc12` [SZ-022326]: the IC50 in experiment [1] turned out to be 10.5 nM.

Take `COc1c(=O)n(C2(C(F)F)CC2)cc2c(N[C@H](C)c3cc(N)cc(C(F)(F)F)c3)nc(C)nc12` [SZ-022327]: the IC50 was 5.04 nM in experiment [1] and 153 nM in experiment [2].

Regarding `COc1c(=O)n(C2(C)CCOC2)cc2c(N[C@H](C)c3cccc(C(F)F)c3F)nc(C)nc12` (stereo partly shown) [SZ-022328], the IC50 in experiment [1] turned out to be 9.7 nM; in experiment [2] it was 309 nM.

As to `COc1c(=O)n(C2(C(F)F)CC2)cc2c(N[C@H](C)c3cccc(C(F)(F)CO)c3F)nc(C)nc12` [SZ-022329], the figures for the IC50 in experiment [1] and in experiment [2] were 2.63 nM and 417 nM, respectively.

Regarding `COc1c(=O)n(C2(C(F)F)CC2)cc2c(N[C@H](C)c3cccc4c(F)coc34)nc(C)nc12` [SZ-022330B], the IC50 is 9.99 nM in experiment [1] and 400 nM in experiment [2].

`COc1c(=O)n(C2(C(F)F)CC2)cc2c(N[C@H](C)c3cccc4c3OCC4(F)F)nc(C)nc12` [SZ-022330]: the IC50 in experiment [1] was found to be 5.02 nM; in experiment [2], 117 nM.

Take `COc1c(=O)n(C2CCN(C(=O)C3CC3)CC2)cc2c(N[C@H](C)c3cccc(C(F)F)c3F)nc(C)nc12` [SZ-022335]: the IC50 in experiment [1] amounted to 27.9 nM.

On to `COc1c(=O)n(C2CC(F)(F)C2)cc2c(N[C@H](C)c3cccc(C(F)F)c3F)nc(C)nc12` [SZ-022336], for which the IC50 in experiment [1] is 36.5 nM.

`CCOc1c(=O)n(C2(C(F)F)CC2)cc2c(N[C@H](C)c3cccc(C(F)F)c3C)nc(C)nc12` [SZ-022337]: the half-maximal inhibitory concentration (IC50) in experiment [1] is 4.14 nM; in experiment [2], 174 nM.

On to `CCOc1c(=O)n(C2(C(F)F)CC2)cc2c(N[C@H](C)c3cccc(C(C)(F)F)c3F)nc(C)nc12` [SZ-022338], for which the results for the concentration for half-maximal inhibition (IC50) in experiment [1] and in experiment [2] were 12.1 nM and 334 nM, respectively.

In the case of `CCOc1c(=O)n(C2(C(F)F)CC2)cc2c(N[C@H](C)c3cccc(C(F)(F)F)c3C)nc(C)nc12` [SZ-022339], the values for the IC50 in experiment [1] and in experiment [2] were 7.25 nM and 186 nM, respectively.

Regarding `CCOc1c(=O)n(C2(C(F)(F)F)CC2)cc2c(N[C@H](C)c3cccc(C(F)(F)F)c3C)nc(C)nc12` [SZ-022340], the results for the IC50 in experiment [1] and in experiment [2] were 15.2 nM and 367 nM, respectively.

Regarding `CCC1(n2cc3c(N[C@H](C)c4cccc(C(F)F)c4F)nc(C)nc3c(OC)c2=O)CC1` [SZ-022343], in experiment [1], the IC50 stood at 26.7 nM.

Consider `COc1c(=O)n(C2(C#N)CC2)cc2c(N[C@H](C)c3cccc(C(F)F)c3F)nc(C)nc12` [SZ-022344], for which the IC50 in experiment [1] was 23.7 nM.

For the molecule `COc1c(=O)n(C2(CO)CC2)cc2c(N[C@H](C)c3cccc(C(F)F)c3F)nc(C)nc12` [SZ-022347], the IC50 in experiment [1] turned out to be 60.1 nM.

Turning to `CCS(=O)(=O)c1c(=O)n(C2(C(F)F)CC2)cc2c(N[C@H](C)c3cccc(C(F)F)c3F)nc(C)nc12` [SZ-022372], the IC50 in experiment [1] came to 36.6 nM.

The values above are taken from patent publication US20240327401A1, “FUSED RING COMPOUND, PHARMACEUTICAL COMPOSITION, AND APPLICATION THEREOF” (EVOPOINT BIOSCIENCES CO., LTD., priority 2021, published 2024).
